“Also recorded” adds a separate entry of the source.
Test system: oxidized collagen IV
Experiment: Binding of DA-DKP and NAT to H2O2 treated collagen IV (LCMS of <5 kDa fraction)
Design: species or system human
Conditions: for binding to oxidized collagen, result in words: equimolar concentration
Procedure: Collagen source: 1 mg/ml Collagen IV form human placenta in 0.25% acetic acid (Sigma™). The collagen was oxidixed with 500 μM H2O2 in 1×PBS for 1 hour at 37° C. The oxidized collagen IV (final=0.2 mg/ml) was then incubated with 2 μM DA-DKP or 2 NAT in PBS for 1 hour at 37° C. At the end of the incubation, the <5 kDa fraction was isolated by a VIVASPIN® 2 microcentrifugal filter having a molecular weight cutoff of 5,000. The <5 kDa fraction was analyzed for DA-DKP and/or NAT content using a liquid chromatograph-mass spectrometery (LCMS) method for DA-DKP analysis.

[1] = 2 μM + oxidized Collagen IV 0.2 mg/ml, 1 hour at 37° C., content of <5 kDa fraction

C[C@@H]1NC(=O)[C@H](CC(=O)O)NC1=O [DA-DKP, aspartyl-alanyl diketopiperazine]
Average % decrease [1]: 26.0% | Average % decrease (2 μM + oxidized Collagen IV w/2 μM NAT): 25.6% | binding to oxidized collagen, result in words: bind to oxidized forms of collagen

CC(=O)N[C@@H](Cc1c[nH]c2ccccc12)C(=O)O [NAT, N-acetyl-tryptophan]
Average % decrease [1]: 48.9% | Average % decrease (2 μM + oxidized Collagen IV w/2 μM DA-DKP): 28.7% | binding to oxidized collagen, result in words: binds more to oxidized collagen IV than DA-DKP; also recorded: bind to oxidized forms of collagen

Reference: patent US10842847B2, “Treatment of degenerative joint disease” (Ampio Pharmaceuticals, Inc., priority 2011, dated 2020)
